Earlier results in US4713385A, “Alkoxy and dialkoxyalkyl esters of dihydrolysergic acid and related compounds useful as 5HT receptor antagonists” (Eli Lilly and Company, priority 1985, dated 1987).

Experiments:
[1] = tested on: 5HT2 receptors; conditions: effect mediated by 5HT2 receptors; in words
[2] = target: vascular dopaminergic receptors
[3] = target: vascular histaminergic receptors
[4] = tested on: 5HT2 receptors; conditions: Garbrecht compounds; in words
[5] = target: vascular alpha adrenergic receptors

CC(O)C(C)OC(=O)[C@@H]1C[C@@H]2c3cccc4c3c(cn4C(C)C)C[C@H]2N(C)C1 (stereo partly drawn) [LY53857, 1-isopropyl-6-methyl-8β-(1-methyl-2-hydroxy)propoxycarbonyl-5R-ergoline]
antagonism of vascular contraction to serotonin [1]: potent antagonist of vascular contraction to serotonin
Kd ([2]; Cohen et al. J.P.E.T., 227, 327 (1983), read-out: Kdissoc (vascular dopaminergic receptors)): ~10 µM
affinity for vascular dopaminergic receptors ([2]; in words): minimal affinity
Kd ([3]; Cohen et al. J.P.E.T., 227, 327 (1983), read-out: Kdissoc (vascular histaminergic receptors)): ~10 µM
affinity for vascular histaminergic receptors ([3]; in words): minimal affinity
peripheral serotonin antagonist activity against 5HT2 receptors [4]: most active peripheral serotonin antagonist
Kd ([5]; Cohen et al. J.P.E.T., 227, 327 (1983), read-out: Kdissoc (vascular alpha adrenergic receptors)): ~10 µM
affinity for vascular alpha adrenergic receptors ([5]; in words): minimal affinity
